ChEMBL document CHEMBL1156337, “Synthesis and evaluation of novel benzothiazole derivatives based on the bithiophene structure as potential radiotracers for beta-amyloid plaques in Alzheimer's disease” (Bioorg Med Chem, 2010)
One block for each compound: values may come before it. Active and inactive are the calls of the source. The rule behind the calls is not given here.

What was measured:
[1] = tested on: Muscle tissue; assay: Biodistribution in muscle of Kunming mouse at 1 uCi, iv after 60 mins by gamma counting; type: ADME, organism-based; details: in vivo, 1 h
[2] = tested on: Muscle tissue; assay: Biodistribution in muscle of Kunming mouse at 1 uCi, iv after 120 mins by gamma counting; type: ADME, organism-based; details: in vivo, 2 h
[3] = tested on: Muscle tissue; assay: Biodistribution in muscle of Kunming mouse at 1 uCi, iv after 240 mins by gamma counting; type: ADME, organism-based; details: in vivo, 4 h
[4] = Partition coefficient, log D in n-octanol/0.05 M phosphate buffer at pH 7.4; type: physicochemical
[5] = tested on: Blood; assay: Biodistribution in blood of Kunming mouse at 1 uCi, iv after 30 mins by gamma counting; type: ADME, organism-based; details: in vivo, 0.5 h
[6] = tested on: Blood; assay: Biodistribution in blood of Kunming mouse at 1 uCi, iv after 2 mins by gamma counting; type: ADME, organism-based; details: in vivo
[7] = tested on: Blood; assay: Biodistribution in blood of Kunming mouse at 1 uCi, iv after 60 mins by gamma counting; type: ADME, organism-based; details: in vivo, 1 h
[8] = tested on: Blood; assay: Biodistribution in blood of Kunming mouse at 1 uCi, iv after 120 mins by gamma counting; type: ADME, organism-based; details: in vivo, 2 h
[9] = tested on: Blood; assay: Biodistribution in blood of Kunming mouse at 1 uCi, iv after 240 mins by gamma counting; type: ADME, organism-based; details: in vivo, 4 h
[10] = tested on: Brain; assay: Biodistribution in brain of Kunming mouse at 1 uCi, iv after 2 mins by gamma counting; type: ADME, organism-based; details: in vivo
[11] = tested on: Brain; assay: Biodistribution in brain of Kunming mouse at 1 uCi, iv after 30 mins by gamma counting; type: ADME, organism-based; details: in vivo, 0.5 h
[12] = tested on: Brain; assay: Biodistribution in brain of Kunming mouse at 1 uCi, iv after 60 mins by gamma counting; type: ADME, organism-based; details: in vivo, 1 h
[13] = tested on: Brain; assay: Biodistribution in brain of Kunming mouse at 1 uCi, iv after 120 mins by gamma counting; type: ADME, organism-based; details: in vivo, 2 h
[14] = tested on: Brain; assay: Biodistribution in brain of Kunming mouse at 1 uCi, iv after 240 mins by gamma counting; type: ADME, organism-based; details: in vivo, 4 h
[15] = tested on: Heart; assay: Biodistribution in heart of Kunming mouse at 1 uCi, iv after 2 mins by gamma counting; type: ADME, organism-based; details: in vivo
[16] = tested on: Heart; assay: Biodistribution in heart of Kunming mouse at 1 uCi, iv after 30 mins by gamma counting; type: ADME, organism-based; details: in vivo, 0.5 h
[17] = tested on: Heart; assay: Biodistribution in heart of Kunming mouse at 1 uCi, iv after 60 mins by gamma counting; type: ADME, organism-based; details: in vivo, 1 h
[18] = tested on: Heart; assay: Biodistribution in heart of Kunming mouse at 1 uCi, iv after 120 mins by gamma counting; type: ADME, organism-based; details: in vivo, 2 h
[19] = tested on: Heart; assay: Biodistribution in heart of Kunming mouse at 1 uCi, iv after 240 mins by gamma counting; type: ADME, organism-based; details: in vivo, 4 h
[20] = tested on: Liver; assay: Biodistribution in liver of Kunming mouse at 1 uCi, iv after 2 mins by gamma counting; type: ADME, organism-based; details: in vivo
[21] = tested on: Liver; assay: Biodistribution in liver of Kunming mouse at 1 uCi, iv after 30 mins by gamma counting; type: ADME, organism-based; details: in vivo, 0.5 h
[22] = tested on: Liver; assay: Biodistribution in liver of Kunming mouse at 1 uCi, iv after 60 mins by gamma counting; type: ADME, organism-based; details: in vivo, 1 h
[23] = tested on: Liver; assay: Biodistribution in liver of Kunming mouse at 1 uCi, iv after 120 mins by gamma counting; type: ADME, organism-based; details: in vivo, 2 h
[24] = tested on: Liver; assay: Biodistribution in liver of Kunming mouse at 1 uCi, iv after 240 mins by gamma counting; type: ADME, organism-based; details: in vivo, 4 h
[25] = tested on: Spleen; assay: Biodistribution in spleen of Kunming mouse at 1 uCi, iv after 2 mins by gamma counting; type: ADME, organism-based; details: in vivo
[26] = tested on: Spleen; assay: Biodistribution in spleen of Kunming mouse at 1 uCi, iv after 30 mins by gamma counting; type: ADME, organism-based; details: in vivo, 0.5 h
[27] = tested on: Spleen; assay: Biodistribution in spleen of Kunming mouse at 1 uCi, iv after 60 mins by gamma counting; type: ADME, organism-based; details: in vivo, 1 h
[28] = tested on: Spleen; assay: Biodistribution in spleen of Kunming mouse at 1 uCi, iv after 120 mins by gamma counting; type: ADME, organism-based; details: in vivo, 2 h
[29] = tested on: Spleen; assay: Biodistribution in spleen of Kunming mouse at 1 uCi, iv after 240 mins by gamma counting; type: ADME, organism-based; details: in vivo, 4 h
[30] = tested on: Lung; assay: Biodistribution in lung of Kunming mouse at 1 uCi, iv after 2 mins by gamma counting; type: ADME, organism-based; details: in vivo
[31] = tested on: Lung; assay: Biodistribution in lung of Kunming mouse at 1 uCi, iv after 30 mins by gamma counting; type: ADME, organism-based; details: in vivo, 0.5 h
[32] = tested on: Lung; assay: Biodistribution in lung of Kunming mouse at 1 uCi, iv after 60 mins by gamma counting; type: ADME, organism-based; details: in vivo, 1 h
[33] = tested on: Lung; assay: Biodistribution in lung of Kunming mouse at 1 uCi, iv after 120 mins by gamma counting; type: ADME, organism-based; details: in vivo, 2 h
[34] = tested on: Lung; assay: Biodistribution in lung of Kunming mouse at 1 uCi, iv after 240 mins by gamma counting; type: ADME, organism-based; details: in vivo, 4 h
[35] = tested on: Kidney; assay: Biodistribution in kidney of Kunming mouse at 1 uCi, iv after 2 mins by gamma counting; type: ADME, organism-based; details: in vivo
[36] = tested on: Kidney; assay: Biodistribution in kidney of Kunming mouse at 1 uCi, iv after 30 mins by gamma counting; type: ADME, organism-based; details: in vivo, 0.5 h
[37] = tested on: Kidney; assay: Biodistribution in kidney of Kunming mouse at 1 uCi, iv after 60 mins by gamma counting; type: ADME, organism-based; details: in vivo, 1 h
[38] = tested on: Kidney; assay: Biodistribution in kidney of Kunming mouse at 1 uCi, iv after 120 mins by gamma counting; type: ADME, organism-based; details: in vivo, 2 h
[39] = tested on: Kidney; assay: Biodistribution in kidney of Kunming mouse at 1 uCi, iv after 240 mins by gamma counting; type: ADME, organism-based; details: in vivo, 4 h
[40] = tested on: Stomach; assay: Biodistribution in stomach of Kunming mouse at 1 uCi, iv after 2 mins by gamma counting measured per organ; type: ADME, organism-based; details: in vivo
[41] = tested on: Stomach; assay: Biodistribution in stomach of Kunming mouse at 1 uCi, iv after 30 mins by gamma counting measured per organ; type: ADME, organism-based; details: in vivo, 0.5 h
[42] = tested on: Stomach; assay: Biodistribution in stomach of Kunming mouse at 1 uCi, iv after 60 mins by gamma counting measured per organ; type: ADME, organism-based; details: in vivo, 1 h
[43] = tested on: Stomach; assay: Biodistribution in stomach of Kunming mouse at 1 uCi, iv after 120 mins by gamma counting measured per organ; type: ADME, organism-based; details: in vivo, 2 h
[44] = tested on: Stomach; assay: Biodistribution in stomach of Kunming mouse at 1 uCi, iv after 240 mins by gamma counting measured per organ; type: ADME, organism-based; details: in vivo, 4 h
[45] = tested on: Muscle tissue; assay: Biodistribution in muscle of Kunming mouse at 1 uCi, iv after 2 mins by gamma counting; type: ADME, organism-based; details: in vivo
[46] = tested on: Muscle tissue; assay: Biodistribution in muscle of Kunming mouse at 1 uCi, iv after 30 mins by gamma counting; type: ADME, organism-based; details: in vivo, 0.5 h
[47] = organism: Mus musculus; assay: Binding affinity to beta amyloid plaques in brain sections of TgC57 transgenic mouse transfected with APP and PS1 double mutant after 10 mins using thioflavin-S stain; type: tissue-based
[48] = Displacement of [125I]TZDM from amyloid beta (1 to 40) aggregates after 2 hrs
[49] = Displacement of [125I]TZDM from amyloid beta (1 to 42) aggregates after 2 hrs

Drug uptake [1]: 1.47 % ID/g
Drug uptake [2]: 1.23 % ID/g
Drug uptake [3]: 0.87 % ID/g
logD [4]: 3.65
Drug uptake [5]: 2.12 % ID/g
Drug uptake [6]: 9.02 % ID/g
Drug uptake [7]: 1.96 % ID/g
Drug uptake [8]: 1.76 % ID/g
Drug uptake [9]: 1.36 % ID/g
Drug uptake [10]: 3.42 % ID/g
Drug uptake [11]: 1.08 % ID/g
Drug uptake [12]: 0.53 % ID/g
Drug uptake [13]: 0.51 % ID/g
Drug uptake [14]: 0.5 % ID/g
Drug uptake [15]: 4.39 % ID/g
Drug uptake [16]: 2.49 % ID/g
Drug uptake [17]: 2.65 % ID/g
Drug uptake [18]: 1.5 % ID/g
Drug uptake [19]: 1.31 % ID/g
Drug uptake [20]: 53.64 % ID/g
Drug uptake [21]: 39.81 % ID/g
Drug uptake [22]: 29.12 % ID/g
Drug uptake [23]: 22.47 % ID/g
Drug uptake [24]: 13.82 % ID/g
Drug uptake [25]: 12.75 % ID/g
Drug uptake [26]: 6.78 % ID/g
Drug uptake [27]: 8.61 % ID/g
Drug uptake [28]: 3.5 % ID/g
Drug uptake [29]: 2.07 % ID/g
Drug uptake [30]: 17.51 % ID/g
Drug uptake [31]: 8.04 % ID/g
Drug uptake [32]: 8.01 % ID/g
Drug uptake [33]: 5.76 % ID/g
Drug uptake [34]: 3.72 % ID/g
Drug uptake [35]: 4 % ID/g
Drug uptake [36]: 7.22 % ID/g
Drug uptake [37]: 8.52 % ID/g
Drug uptake [38]: 7.33 % ID/g
Drug uptake [39]: 5.76 % ID/g
Drug uptake [40]: 0.39 %ID
Drug uptake [41]: 2.47 %ID
Drug uptake [42]: 4.05 %ID
Drug uptake [43]: 4.39 %ID
Drug uptake [44]: 3.24 %ID
Drug uptake [45]: 0.65 % ID/g
Drug uptake [46]: 1.01 % ID/g
SMILES: [125I]c1ccc2nc(-c3ccc(-c4cccs4)s3)sc2c1

Activity [47]: Active
Ki [48]: 1.28 nM
Ki [49]: 0.21 nM
SMILES: COc1ccc2nc(-c3ccc(-c4ccc(Br)s4)s3)sc2c1

Activity [47]: Active
Ki [48]: 3.94 nM
Ki [49]: 4.64 nM
SMILES: c1csc(-c2ccc(-c3nc4ccccc4s3)s2)c1
